Marks after values point to notes of the source that are not given here.
Test: CS21 safety: treatment-emergent adverse events (MedDRA SOC/PT), crude incidence, also by subgroup
Format: in vivo
Conditions: for Musculoskeletal and connective tissue disorders, % of patients: pooled degarelix
Description: The safety variables for this study were assessed on the following: the frequency and severity of adverse events (AEs); the presence of clinically significant changes in laboratory parameters (clinical chemistry, hematology and urinalysis); changes in electrocardiograms (ECGs) and vital signs; changes detected by physical examination; and body weight.
An AE was therefore any unfavorable or unintended sign (including an abnormal laboratory finding), symptom or disease temporally associated with the use of the product, whether or not related to the IMP.
An adverse drug reaction (ADR) was defined as an AE evaluated by the investigator as being probably or possibly related to treatment with the IMP.
AEs were graded according to the National Cancer Institute (NCI) Common Terminology Criteria for Adverse Events (CTCAE). In accordance with the CTCAE criteria, AEs were rated on a five-point scale corresponding to mild, moderate, severe, life-threatening or disabling and death. For those AEs not described in the CTCAE, a separate five-point rating scale was used for rating of the intensity of AEs as follows below:
Safety parameters were evaluated for all patients included in the ITT analysis set, comprising all 610 randomized patients who received at least one dose of study medication. All safety tables include four columns: the three treatment groups described separately, and the pooled degarelix group.
Adverse events were regarded as ‘treatment-emergent’ if they occurred in the time interval from initial dosing to end-of-study. Adverse events were considered ‘pre-treatment’ if they occurred between screening and the initial injections of IMP. As described above, all AEs were classified according to MedDRA (version 10.0) system organ class (SOC), sorted alphabetically, and by preferred term (PT), in decreasing frequency of occurrence. Treatment-emergent AEs were expressed in terms of intensity (using NCI CTCAE) and relationship to study drug.
Using the results from the summary of clinical efficacy (SCE) and summary of clinical safety (SCS) findings, different patient subgroups were analyzed. Subgroup distinguishers included race (white, black, and other), age (<65 years, […], and >75 years), weight (<70 kg, ≥70−<90 kg, and ≥90 kg), body mass index (BMI) (≤20, >20 to 30, and >30 kg/m^2)), region (North-America, Western Europe, Central and Eastern Europe and Other), and stage of prostate cancer (e.g., localized, locally advanced, and metastatic).

[1] = degarelix Total (pooled), leuprolide 7.5 mg
[2] = degarelix Total (pooled), leuprolide 7.5 mg, listed as leuprolide

## CCNC(=O)[C@@H]1CCCN1C(=O)[C@H](CCCNC(=N)N)NC(=O)[C@H](CC(C)C)NC(=O)[C@@H](CC(C)C)NC(=O)[C@H](Cc1ccc(O)cc1)NC(=O)[C@H](CO)NC(=O)[C@H](Cc1c[nH]c2ccccc12)NC(=O)[C@H](Cc1c[nH]cn1)NC(=O)[C@@H]1CCC(=O)N1 [Leuprolide, leuprolide, reference compound]
Age <65
  Musculoskeletal and connective tissue disorders, % of patients: (34%)**
PCA = Localised
  Musculoskeletal and connective tissue disorders, % of patients: (25%)
PCA = Locally advanced
  Musculoskeletal and connective tissue disorders, % of patients: (19%)
PCA = Metastatic
  Musculoskeletal and connective tissue disorders, % of patients: (36%)
Race = White
  Musculoskeletal and connective tissue disorders, % of patients: (26%)**
Weight <70 kg
  Musculoskeletal and connective tissue disorders, % of patients: (36%)*
Weight >=90 kg
  Musculoskeletal and connective tissue disorders, % of patients: (32%)*
[1]
  Deaths (Grade 5), % of patients: 4%
  Deaths (Grade 5), E events: 10
  Deaths (Grade 5), N patients: 9
  Infections & infestations, % of patients: (24%)
  Musculoskeletal & connective tissue disorders, % of patients: (26%)
  Skin & subcutaneous tissue disorders, % of patients: ( 5%)
  Urinary tract infection, % of patients: ( 9%)
[2]
  Infections & infestations, % of patients: 24%
  Musculoskeletal & connective tissue disorders, % of patients: 26%
  Urinary tract infection, % of patients: 9%
In vivo
  Atrioventricular block first degree, % of patients: (6%)*
  Bronchitis, % of patients: ( 8%)*
  Chest pain, % of patients: ( 3%)*
  Cystitis noninfective, % of patients: (2%)*
  Deep vein thrombosis, % of patients: (2%)*
  Depression, % of patients: (6%)*
  Diarrhoea, % of patients: (8%)*
  Dyspnoea, % of patients: (6%)*
  Excoriation, % of patients: ( 4%)
  Fall, % of patients: ( 2%)
  Gynaecomastia, % of patients: (3%)
  Injury, poisoning and procedural complications, % of patients: (12%)**
  Investigations, % of patients: (30%)
  Libido decreased, % of patients: (3%)
  Musculoskeletal stiffness, % of patients: (2%)*
  Myocardial ischaemia, % of patients: ( 3%)*
  Nervous system disorders, % of patients: (10%)
  Orthostatic hypotension, % of patients: (2%)*
  Pain in extremity, % of patients: ( 9%)
  Pelvic pain, % of patients: (8%)*
  Psychiatric disorders, % of patients: (14%)
  Respiratory, thoracic and mediastinal disorders, % of patients: (10%)
  Syncope, % of patients: (2%)*
  Vascular disorders, % of patients: (30%)
